Reference: US11987589B2, “Heterocyclic flavone derivatives, compositions, and methods related thereto” (Emory University, priority 2018, dated 2024)
Where two headings read alike, the source gives them in different places.

Tests used:
Plasma Stability (mouse) = format: in vitro ADME
Plasma Stability (human) = format: in vitro ADME
[1] = human, hepatocytes
[2] = mouse, hepatocytes
BBB-PAMPA Permeability = format: in vitro ADME; conditions: Test Conc. 10 μM

**Q.** What does the source list for `CC(=O)CC(c1ccccc1)c1c(O)c2ccccc2oc1=O` (stereo not drawn) [Warfarin, reference compound]?
**A.** Avg % Remaining at Last Point (Plasma Stability (mouse)): 80.8%; Avg % Remaining at Last Point (Plasma Stability (human)): 93.6%

**Q.** What does the source list for `O=c1ccc2ccc(O)cc2o1` [7-OH-Coumarin]?
**A.** Avg % Remaining at Last Point [1]: 7.17%; Clearance [1]: 88.5 μl/min/million cells; Half Life [1]: 15.7 min; Avg % Remaining at Last Point [2]: 38.8%; Clearance [2]: 63.2 μl/min/million cells; Half Life [2]: 21.9 min

**Q.** Which recovery at 10 μM (BBB-PAMPA Permeability) does the source give for `CC(C)NCC(O)COc1ccc(CC(N)=O)cc1` (stereo not drawn) [Atenolol, reference compound] here?
**A.** 84.6%
